Measurements reported in patent US20090035815A1, “Synthetic Gene for Enhanced Expression in E. Coli” (priority 2007, published 2009).

Tested on: PC-12 cells
Test: In-vitro bioassay of recombinant Nesiritide: cGMP induction in PC-12 cells
Format: cell-based, Rat
Conditions: 30 mins
Description: In all five batches of Nesiritide of the present invention, the cGMP induction in PC-12 cells the Nesiritide concentration (nM) is directly proportional to the concentration of Nesiritide used in culture. Culture format: 24-well plate; Cells used: PC-12 cells (Rat adrenal pheochromocytoma); no. of cells plated: 1.0×10^6 cells per well; Parameter measured: cGMP from cell lysate; Method used: Competitive Inhibition Assay (Acetylated format); Kit used: Correlate-EIA cGMP kit Assay Design Inc., USA.
Nesiritide is known to elicit its biological activity via a cGMP second messenger system in vitro and in vivo. PC-12 cells were plated in Plain RPMI medium in 24-well plate and equilibrated at 37° C., 5% CO2 incubator for 2 hrs. Prestimulation medium (RPMI+0.1% BSA+0.1 mM IBMX) was added to cells for 10 mins. It was followed by the addition of different concentrations of Nesiritide for 30 mins at 37° C., 5% CO2 incubator. The cells were lysed with 0.1M HCL for 20 mins followed by 5-7 freeze-thaw cycles. The cell lysates were centrifuged in microfuge at 10000 rpm for 10 mins at 4° C. Protein concentration of the supernatant was estimated by Bradford's method. The supernatant from cell lysates was assayed for cGMP concentration (FIG. 13) using a cGMP kit (Assay Design Inc). The cGMP from cell lysates was estimated from cGMP standard curve. ED50 value was calculated.

| Substance | cGMP levels (Nesiritide Conc 25 nM) [pmol/mL] | cGMP levels (Nesiritide Conc 50 nM) [pmol/mL] | cGMP levels (Nesiritide Conc 75 nM) [pmol/mL] | cGMP levels (Nesiritide Conc 100 nM) [pmol/mL] | cGMP levels (Nesiritide Conc 150 nM) [pmol/mL] | cGMP levels (Nesiritide Conc 200 nM) [pmol/mL] |
| --- | --- | --- | --- | --- | --- | --- |
| USV B. No 5406: batch of recombinant nesiritide of the present invention (Seq. ID NO:2) | 0.133 ± 0.004 | 0.161 ± 0.01 | 0.383 ± 0.02 | 0.444 ± 0.06 | 0.799 ± 0.08 | 1.214 ± 0.06 |
| USV B. No 5606: batch of recombinant nesiritide of the present invention (Seq. ID NO:2) | 0.119 ± 0.01 | 0.150 ± 0.03 | 0.321 | 0.475 ± 0.01 | 0.787 ± 0.07 | 1.006 ± 0.05 |
| USV B. No 5706: batch of recombinant nesiritide of the present invention (Seq. ID NO:2) | 0.114 ± 0.005 | 0.191 ± 0.01 | 0.305 ± 0.05 | 0.478 ± 0.06 | 0.756 ± 0.02 | 1.085 ± 0.06 |
| b-type natriuretic peptide (1-32) [Bachem, reference compound] | 0.121 ± 0.006 | 0.164 ± 0.05 | 0.327 ± 0.05 | 0.502 ± 0.05 | 0.793 ± 0.02 | 1.206 ± 0.08 |
